Laboratory results as given in the supplement of paper PMC10307832.

Tests used:
Assay in all cases: relative viability (nuclei count vs DMSO), 5 days (fraction); higher = more cells survive
[1] = system: LCLC-97TM1
Summary of the method: (§1)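 Lung cancer cell lines were pin-tool dosed in 1536-well plates on the day after seeding, with either a lone drug or a fixed anchor-drug dose plus five library-drug doses (not always all listed) in √10 steps. Nuclei were counted on 4× images after 5 days. Relative viability is the ratio of treated-well to vehicle-well nuclei counts, with each value a median of duplicate plates.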

[2] = system: NCI-H1793
Summary of the method: as §1

[3] = system: NCI-H2087
Summary of the method: as §1

[4] = system: NCI-H1944
Summary of the method: as §1

[5] = system: LCLC-103H
Summary of the method: as §1

[6] = system: LXF-289
Summary of the method: as §1

[7] = system: NCI-H727
Summary of the method: as §1

[8] = system: NCI-H1437
Summary of the method: as §1

[9] = system: NCI-H1792
Summary of the method: as §1

[10] = system: HCC-827
Summary of the method: as §1

[11] = system: NCI-H2405
Summary of the method: as §1

[12] = system: NCI-H2228
Summary of the method: as §1

[13] = system: SK-LU-1
Summary of the method: as §1

[14] = system: RERF-LC-KJ
Summary of the method: as §1

[15] = system: NCI-H1395
Summary of the method: as §1

[16] = system: BEN
Summary of the method: as §1

[17] = system: CAL-12T
Summary of the method: as §1

[18] = system: NCI-H3122
Summary of the method: as §1

[19] = system: NCI-H647
Summary of the method: as §1

[20] = system: 201T
Summary of the method: as §1

[21] = system: NCI-H322M
Summary of the method: as §1

SMILES: O=c1cc(N2CCOCC2)oc2c(-c3cccc4c3sc3ccccc34)cccc12 + Cc1nc(NC(=O)N2CCC[C@H]2C(N)=O)sc1-c1ccnc(C(C)(C)C(F)(F)F)c1 [Alpelisib] (partner 2 µM)
- relative viability ([1]; first compound 0.01 µM): 0.287
- relative viability ([1]; first compound 0.03162 µM): 0.269
- relative viability ([1]; first compound 0.3162 µM): 0.201
- relative viability ([1]; first compound 1 µM): 0.244
- relative viability ([2]; first compound 0.01 µM): 0.607
- relative viability ([2]; first compound 0.03162 µM): 0.866
- relative viability ([2]; first compound 0.1 µM): 0.7
- relative viability ([2]; first compound 0.3162 µM): 0.705
- relative viability ([2]; first compound 1 µM): 0.484
- relative viability ([3]; first compound 0.01 µM): 1.12
- relative viability ([3]; first compound 0.03162 µM): 1.02
- relative viability ([3]; first compound 0.1 µM): 1.13
- relative viability ([3]; first compound 0.3162 µM): 1.23
- relative viability ([3]; first compound 1 µM): 1.16
- relative viability ([4]; first compound 0.01 µM): 0.814
- relative viability ([4]; first compound 0.03162 µM): 0.833
- relative viability ([4]; first compound 0.1 µM): 0.82
- relative viability ([4]; first compound 0.3162 µM): 0.847
- relative viability ([4]; first compound 1 µM): 0.801
- relative viability ([5]; first compound 0.01 µM): 0.904
- relative viability ([5]; first compound 0.03162 µM): 0.924
- relative viability ([5]; first compound 0.1 µM): 1.03
- relative viability ([5]; first compound 0.3162 µM): 1.03
- relative viability ([5]; first compound 1 µM): 0.93
- relative viability ([6]; first compound 0.01 µM): 1.05
- relative viability ([6]; first compound 0.03162 µM): 1.03
- relative viability ([6]; first compound 0.1 µM): 1.05
- relative viability ([6]; first compound 0.3162 µM): 1
- relative viability ([6]; first compound 1 µM): 1.02
- relative viability ([7]; first compound 0.01 µM): 0.481
- relative viability ([7]; first compound 0.03162 µM): 0.591
- relative viability ([7]; first compound 0.1 µM): 0.493
- relative viability ([7]; first compound 0.3162 µM): 0.538
- relative viability ([7]; first compound 1 µM): 0.541
- relative viability ([8]; first compound 0.01 µM): 0.931
- relative viability ([8]; first compound 0.03162 µM): 0.937
- relative viability ([8]; first compound 0.1 µM): 1.02
- relative viability ([8]; first compound 0.3162 µM): 0.993
- relative viability ([8]; first compound 1 µM): 0.95
- relative viability ([9]; first compound 0.01 µM): 0.677
- relative viability ([9]; first compound 0.03162 µM): 0.628
- relative viability ([9]; first compound 0.1 µM): 0.709
- relative viability ([9]; first compound 0.3162 µM): 0.672
- relative viability ([9]; first compound 1 µM): 0.674
- relative viability ([10]; first compound 0.01 µM): 0.918
- relative viability ([10]; first compound 0.03162 µM): 0.931
- relative viability ([10]; first compound 0.1 µM): 0.911
- relative viability ([10]; first compound 0.3162 µM): 0.947
- relative viability ([10]; first compound 1 µM): 0.914
- relative viability ([11]; first compound 0.01 µM): 0.895
- relative viability ([11]; first compound 0.03162 µM): 0.885
- relative viability ([11]; first compound 0.1 µM): 0.838
- relative viability ([11]; first compound 0.3162 µM): 0.835
- relative viability ([11]; first compound 1 µM): 0.827
- relative viability ([12]; first compound 0.03162 µM): 0.928
- relative viability ([12]; first compound 0.1 µM): 0.713
- relative viability ([12]; first compound 0.3162 µM): 0.877
- relative viability ([12]; first compound 1 µM): 0.481
- relative viability ([13]; first compound 0.03162 µM): 0.966
- relative viability ([13]; first compound 0.1 µM): 0.985
- relative viability ([13]; first compound 0.3162 µM): 1.09
- relative viability ([13]; first compound 1 µM): 1.01
- relative viability ([14]; first compound 0.01 µM): 0.834
- relative viability ([14]; first compound 0.03162 µM): 0.892
- relative viability ([14]; first compound 0.1 µM): 0.981
- relative viability ([14]; first compound 0.3162 µM): 0.86
- relative viability ([14]; first compound 1 µM): 0.9
- relative viability ([15]; first compound 0.01 µM): 1.1
- relative viability ([15]; first compound 0.03162 µM): 0.976
- relative viability ([15]; first compound 0.1 µM): 0.989
- relative viability ([15]; first compound 0.3162 µM): 1.09
- relative viability ([15]; first compound 1 µM): 0.956
- relative viability ([16]; first compound 0.01 µM): 0.946
- relative viability ([16]; first compound 0.03162 µM): 1.16
- relative viability ([16]; first compound 0.1 µM): 0.951
- relative viability ([16]; first compound 0.3162 µM): 0.951
- relative viability ([16]; first compound 1 µM): 1.05
- relative viability ([17]; first compound 0.01 µM): 1.29
- relative viability ([17]; first compound 0.03162 µM): 1.1
- relative viability ([17]; first compound 0.1 µM): 1.13
- relative viability ([17]; first compound 0.3162 µM): 1.27
- relative viability ([17]; first compound 1 µM): 1.1
- relative viability ([18]; first compound 0.01 µM): 0.868
- relative viability ([18]; first compound 0.03162 µM): 0.729
- relative viability ([18]; first compound 0.1 µM): 0.839
- relative viability ([18]; first compound 0.3162 µM): 0.756
- relative viability ([18]; first compound 1 µM): 0.713
- relative viability ([19]; first compound 0.01 µM): 1.18
- relative viability ([19]; first compound 0.03162 µM): 1.2
- relative viability ([19]; first compound 0.1 µM): 1.24
- relative viability ([19]; first compound 0.3162 µM): 1.11
- relative viability ([19]; first compound 1 µM): 0.913
- relative viability ([20]; first compound 0.01 µM): 1
- relative viability ([20]; first compound 0.03162 µM): 0.994
- relative viability ([20]; first compound 0.1 µM): 1.07
- relative viability ([20]; first compound 0.3162 µM): 0.979
- relative viability ([20]; first compound 1 µM): 0.879
- relative viability ([21]; first compound 0.01 µM): 0.804
- relative viability ([21]; first compound 0.03162 µM): 0.721
- relative viability ([21]; first compound 0.3162 µM): 0.82
- relative viability ([21]; first compound 1 µM): 0.813

SMILES: COc1nc(C)cnc1NS(=O)(=O)c1cccnc1-c1ccc(-c2nnco2)cc1 [Zibotentan] + Cc1nc(NC(=O)N2CCC[C@H]2C(N)=O)sc1-c1ccnc(C(C)(C)C(F)(F)F)c1 [Alpelisib] (partner 2 µM)
- relative viability ([1]; first compound 0.08 µM): 0.309
- relative viability ([1]; first compound 0.253 µM): 0.238
- relative viability ([1]; first compound 0.8 µM): 0.183
- relative viability ([1]; first compound 2.53 µM): 0.264
- relative viability ([2]; first compound 0.08 µM): 0.821
- relative viability ([2]; first compound 0.253 µM): 0.53
- relative viability ([2]; first compound 0.8 µM): 0.852
- relative viability ([2]; first compound 2.53 µM): 0.713
- relative viability ([3]; first compound 0.08 µM): 1.06
- relative viability ([3]; first compound 0.253 µM): 1.13
- relative viability ([3]; first compound 0.8 µM): 1.03
- relative viability ([3]; first compound 2.53 µM): 1.05
- relative viability ([4]; first compound 0.08 µM): 0.915
- relative viability ([4]; first compound 0.253 µM): 0.808
- relative viability ([4]; first compound 0.8 µM): 0.756
- relative viability ([4]; first compound 2.53 µM): 0.888
- relative viability ([5]; first compound 0.08 µM): 0.955
- relative viability ([5]; first compound 0.253 µM): 0.969
- relative viability ([5]; first compound 0.8 µM): 1.01
- relative viability ([5]; first compound 2.53 µM): 1.05
- relative viability ([6]; first compound 0.08 µM): 1.03
- relative viability ([6]; first compound 0.253 µM): 1.04
- relative viability ([6]; first compound 0.8 µM): 1.11
- relative viability ([6]; first compound 2.53 µM): 1.09
- relative viability ([7]; first compound 0.08 µM): 0.483
- relative viability ([7]; first compound 0.253 µM): 0.794
- relative viability ([7]; first compound 0.8 µM): 0.55
- relative viability ([7]; first compound 2.53 µM): 0.643
- relative viability ([8]; first compound 0.08 µM): 0.949
- relative viability ([8]; first compound 0.253 µM): 0.867
- relative viability ([8]; first compound 0.8 µM): 0.913
- relative viability ([8]; first compound 2.53 µM): 0.973
- relative viability ([9]; first compound 0.08 µM): 0.621
- relative viability ([9]; first compound 0.253 µM): 0.58
- relative viability ([9]; first compound 0.8 µM): 0.559
- relative viability ([9]; first compound 2.53 µM): 0.648
- relative viability ([10]; first compound 0.08 µM): 1.01
- relative viability ([10]; first compound 0.253 µM): 1.07
- relative viability ([10]; first compound 0.8 µM): 0.808
- relative viability ([10]; first compound 2.53 µM): 0.975
- relative viability ([11]; first compound 0.08 µM): 0.787
- relative viability ([11]; first compound 0.253 µM): 0.65
- relative viability ([11]; first compound 0.8 µM): 0.745
- relative viability ([11]; first compound 2.53 µM): 0.948
- relative viability ([12]; first compound 0.08 µM): 0.66
- relative viability ([12]; first compound 0.253 µM): 0.652
- relative viability ([12]; first compound 0.8 µM): 0.59
- relative viability ([12]; first compound 2.53 µM): 0.873
- relative viability ([13]; first compound 0.08 µM): 1.08
- relative viability ([13]; first compound 0.253 µM): 0.629
- relative viability ([13]; first compound 0.8 µM): 1.12
- relative viability ([13]; first compound 2.53 µM): 0.907
- relative viability ([14]; first compound 0.08 µM): 0.865
- relative viability ([14]; first compound 0.253 µM): 0.898
- relative viability ([14]; first compound 0.8 µM): 0.826
- relative viability ([14]; first compound 2.53 µM): 0.83
- relative viability ([15]; first compound 0.08 µM): 1.28
- relative viability ([15]; first compound 0.253 µM): 0.993
- relative viability ([15]; first compound 0.8 µM): 1.18
- relative viability ([15]; first compound 2.53 µM): 1.42
- relative viability ([16]; first compound 0.08 µM): 1.17
- relative viability ([16]; first compound 0.253 µM): 0.955
- relative viability ([16]; first compound 0.8 µM): 1.02
- relative viability ([16]; first compound 2.53 µM): 0.922
- relative viability ([17]; first compound 0.08 µM): 1.25
- relative viability ([17]; first compound 0.253 µM): 0.923
- relative viability ([17]; first compound 0.8 µM): 1.33
- relative viability ([17]; first compound 2.53 µM): 1.23
- relative viability ([18]; first compound 0.08 µM): 0.801
- relative viability ([18]; first compound 0.253 µM): 0.773
- relative viability ([18]; first compound 0.8 µM): 0.76
- relative viability ([18]; first compound 2.53 µM): 0.822
- relative viability ([19]; first compound 0.08 µM): 1.29
- relative viability ([19]; first compound 0.253 µM): 0.92
- relative viability ([19]; first compound 0.8 µM): 1.28
- relative viability ([19]; first compound 2.53 µM): 1.24
- relative viability ([20]; first compound 0.08 µM): 1.05
- relative viability ([20]; first compound 0.253 µM): 0.993
- relative viability ([20]; first compound 0.8 µM): 1.1
- relative viability ([20]; first compound 2.53 µM): 1.11
- relative viability ([21]; first compound 0.08 µM): 0.692
- relative viability ([21]; first compound 0.253 µM): 0.704
- relative viability ([21]; first compound 0.8 µM): 0.719
- relative viability ([21]; first compound 2.53 µM): 0.905
